Laboratory results reported in patent US12064433B2 (ARCUS BIOSCIENCES, INC., priority 2018, dated 2024).

Key:
Human A2BR = molecular target: T1, Human A2BR (Homo sapiens, UniProt P29275); assay: Human 2B Adenosine Receptor CHO-K1 cAMP antagonist functional assay; format: cell-based; details: cAMP antagonist functional assay vs NECA, CHO-K1 cells stably expressing Human A2BR; read-out: A2B (Potency: A2BR KB)
T1 sequence (P29275 1-332): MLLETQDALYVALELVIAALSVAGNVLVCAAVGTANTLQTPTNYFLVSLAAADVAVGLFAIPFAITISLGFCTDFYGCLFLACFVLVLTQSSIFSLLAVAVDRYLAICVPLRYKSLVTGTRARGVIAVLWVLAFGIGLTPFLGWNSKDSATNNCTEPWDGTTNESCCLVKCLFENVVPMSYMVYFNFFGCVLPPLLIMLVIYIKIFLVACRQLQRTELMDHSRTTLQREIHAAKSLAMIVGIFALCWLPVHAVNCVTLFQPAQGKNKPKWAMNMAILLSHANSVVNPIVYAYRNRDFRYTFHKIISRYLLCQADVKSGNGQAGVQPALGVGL
Procedure: Measurement of the Adenosine Receptor Activity of Compounds Using a Human 2B Adenosine Receptor CHO-K1 cAMP Functional Assay
CHO-K1 cells stably expressing Human Adenosine 2B Receptor (A2BR: Cat. No. M000329, GenScript) were purchased from GenScript Inc., Piscataway, NJ 08854, USA.
The cAMP antagonist functional assay (Perkin Elmer) was performed on CHO-K1 cells stably expressing Human A2BR. 1×10^6 cells were seeded in T75 flasks and cultured at 37° C. and 5% CO2 overnight. 2,000-4,000 cells/well of stably-expressed A2bR CHO-K1 cells were then seeded to a white 384-well Opti plate followed by compound 1 incubation at various concentrations (ranging from 1 μM to 0 μM) at 37° C. for 1 hour.
(§1) A 1:2 serial dilution of NECA (Sigma Aldrich) from 1 μM to 0 μM was added to the cell stimulation mixture and incubated for 30 min at 37° C. After 30 min incubation, 5 μL of Ulight-anti-cAMP (1:150 dilution with conjugate and lysis buffer provided by Perkin Elmer) and 5 μL of Eu-cAMP tracer (1:50 dilution with conjugate and lysis buffer provided by Perkin Elmer) was added the cells and incubated for an hour. FRET signal was detected with an Envision multilabel plate reader (Perkin Elmer) loaded with 615 nm […] filters and 665 nm emission filters.
(§2) Data analysis was performed using on GraphPad Prism (version 7.02) to determine the KB of the test compounds.

Human A2AR = molecular target: T2, Human A2AR (Homo sapiens, UniProt P29274); assay: Human 2A Adenosine Receptor (A2aR) CHO-TREx cAMP antagonist functional assay; format: cell-based; details: cAMP antagonist functional assay vs NECA, CHO-T-REx cells induced to express Human A2AR; read-out: A2A (Potency: A2AR KB)
T2 construct: expressed in transfected cells; host or cells: CHO-T-REx cells, tetracycline-inducible expression
Procedure: Measurement of the Adenosine Receptor Activity of Compounds Using a Human 2A Adenosine Receptor (A2aR) CHO-TREx cAMP Functional Assay
The cAMP antagonist functional assay (Perkin Elmer) was performed on CHO-T-REx cells induced to express Human A2AR. Cells were seeded to a white 384-well Opti plate at a density of 1,000 to 2,500 cells per well followed by incubation with various concentrations of compound (ranging from 1 μM to 0 μM) at 37° C. for 1 hour.
as §1, §2

T2 sequence (P29274 whole entry): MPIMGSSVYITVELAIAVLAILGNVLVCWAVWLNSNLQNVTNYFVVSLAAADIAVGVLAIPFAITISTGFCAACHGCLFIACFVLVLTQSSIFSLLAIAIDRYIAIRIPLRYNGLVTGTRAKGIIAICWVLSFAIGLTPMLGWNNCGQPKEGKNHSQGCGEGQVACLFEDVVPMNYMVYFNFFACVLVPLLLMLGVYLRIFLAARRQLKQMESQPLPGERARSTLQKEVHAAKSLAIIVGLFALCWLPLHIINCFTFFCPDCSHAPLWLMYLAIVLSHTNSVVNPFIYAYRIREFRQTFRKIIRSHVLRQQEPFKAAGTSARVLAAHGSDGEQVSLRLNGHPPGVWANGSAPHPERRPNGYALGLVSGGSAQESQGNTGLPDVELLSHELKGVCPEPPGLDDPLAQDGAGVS

Molecule	Kb (Human A2BR) [nM]	Kb (Human A2AR) [nM]
COc1cccc2c(-c3cn(Cc4cccn(CC(C)(C)O)c4=O)nn3)nc(N)nc12 [Example 3]	< 100	< 100
COc1cccc2c(-c3cn(Cc4cccn(CC5CCOCC5)c4=O)nn3)nc(N)nc12 [Example 21]	< 100	< 100
COc1cccc2c(-c3cn(Cc4cccn([C@H](C)C5CCOCC5)c4=O)nn3)nc(N)nc12 [Example 28]	< 100	< 100
CCn1cccc(Cn2cc(-c3nc(N)nc4c(OC)cccc34)cn2)c1=O [Example 40, 3-{[4-(2-Amino-8-methoxy-4-quinazolinyl)-1H-pyrazol-1-yl]methyl}-1-ethyl-1H-pyridin-2-one]	100 to 1000	< 100
COc1cccc2c(-c3cn(Cc4cccn(C(C)C)c4=O)nn3)cc(N)nc12 [Example 8]	100 to 1000	< 100
Cc1cccc2c(-c3cn(Cc4cccn(C(C)C)c4=O)nn3)nc(N)nc12 [Example 6]	< 100	< 100
COc1cccc2c(-c3cn(Cc4cccn([C@@H](C)C5CCOCC5)c4=O)nn3)nc(N)nc12 [Example 29]	< 100	< 100
COc1cccc2c(-c3cn(Cc4cccn([C@H](C)C(C)(C)O)c4=O)nn3)nc(N)nc12 [Example 27, 1-[(R)-2-Hydroxy-1,2-dimethylpropyl]-3-{[4-(2-amino-8-methoxy-4-quinazolinyl)-1H-1,2,3-triazol-1-yl]methyl}-1H-pyridin-2-one]	100 to 1000	< 100
COc1cccc2c(-c3cn(Cc4cccn([C@@H](C)C(C)(C)O)c4=O)nn3)nc(N)nc12 [Example 26, 1-[(S)-2-Hydroxy-1,2-dimethylpropyl]-3-{[4-(2-amino-8-methoxy-4-quinazolinyl)-1H-1,2,3-triazol-1-yl]methyl}-1H-pyridin-2-one]	< 100	< 100
3-{[4-(2-Amino-8-methoxy-4-quinazolinyl)-1H-1,2,3-triazol-1-yl]methyl}-1-(cyclopropylmethyl)-1H-pyridin-2-one [Example 4]	100 to 1000	< 100
COC[C@@H](C)n1cccc(Cn2cc(-c3nc(N)nc4c(OC)cccc34)nn2)c1=O [Example 24]	< 100	< 100
1-[(S)-Tetrahydro-2H-pyran-3-yl]-3-{[4-(2-amino-8-methoxy-4-quinazolinyl)-1H-1,2,3-triazol-1-yl]methyl}-1H-pyridin-2-one [Example 32]	< 100	< 100
COC[C@H](C)n1cccc(Cn2cc(-c3nc(N)nc4c(OC)cccc34)nn2)c1=O [Example 25]	100 to 1000	< 100
